Measurements published in US20100256357A1, “HETEROCYCLES USEFUL AS INHIBITORS OF CARBONIC ANHYDRASE” (Agouron Pharmaceuticals, Inc., priority 2006, published 2010).
Like-named read-outs stand apart in the source and are kept apart here.

Assays:
human CA-II [1] = target: T1, human CA-II (Homo sapiens, UniProt P00918); experiment: Carbonic Anhydrase-II (CA-II) Fluorimetric Assay-IC50 Determination; format: biochemical; details: read-out: CAII % Inh @ Min dose; for inhibition at 0.1 µM: CA II Min dose 100 nM; for inhibition at 0.0025 µM: Min dose 2.5 nM
T1 construct: purchased Sigma-Aldrich C6165
Summary of the method: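 Compounds were tested as an 11-point, 1:3 dilution series in duplicate, with a top final concentration of 1 μM, in 50 mM Tris/HCl pH 7.6, 100 mM Na2SO4 and 0.005% Tween-20. Human CA-II activity was followed as the rate of fluorescein diacetate hydrolysis at 25° C, with excitation at 488 nm and emission at 538 nm.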

human CA-II [2] = target: T1, human CA-II; experiment: Carbonic Anhydrase-II (CA-II) Fluorescence Polarization Tight Binding Assay-Kd Determination; details: for Kd: read-out: CA-II Kd; for inhibition at 0.0025 µM: inhibitor concentration 2.5 nM
Method: Assays were conducted in a final volume of 100 μL in 50 mM Tris/HCl (pH 7.6), 100 mM Na2SO4 and 0.005% Tween-20 in a 96-well black assay plate. […] The assay plate was
The Kd binding was calculated using GraphPad Prism and Morrison tight binding ligand equation.

human CA-IV = target: T2, human CA-IV (Homo sapiens, UniProt P22748); experiment: Carbonic Anhydrase-IV (CA-IV) Fluorescence Polarization Assay-IC50 Determination; format: binding; details: for inhibition at 0.2 µM: read-out: CA-IV: % Inh @ Min dose; for IC50: read-out: CA-IV IC50
T2 construct: made in house; host or cells: Escherichia coli BL21(DE3)
T2 sequence (P22748 19-284 limits assumed): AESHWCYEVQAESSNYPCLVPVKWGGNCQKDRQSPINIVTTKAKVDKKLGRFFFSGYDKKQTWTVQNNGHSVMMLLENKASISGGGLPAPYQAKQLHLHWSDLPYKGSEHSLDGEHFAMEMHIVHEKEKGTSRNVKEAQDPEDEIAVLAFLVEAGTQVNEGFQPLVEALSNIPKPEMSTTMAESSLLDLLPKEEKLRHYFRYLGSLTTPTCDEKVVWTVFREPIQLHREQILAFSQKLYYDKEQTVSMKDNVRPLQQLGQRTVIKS
Summary of the method: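 Recombinant CA-IV expressed with 800 uM ZnCl2, purified by SP-Sepharose and Sephacryl S-100 in 25 mM Tris-HCl pH 7.0, 100 mM NaCl, concentrated to 7.0 mg/mL. IC50 by fluorescence polarization.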

Structure (SMILES): N#CCCN(C(=O)c1nc(Cc2ccccc2)n(-c2ccc(S(N)(=O)=O)cc2)n1)C1CC1 [Example R-13, 1-[4-(aminosulfonyl)phenyl]-5-benzyl-N-(2-cyanoethyl)-N-cyclopropyl-1H-124-triazole-3-carboxamide]
- inhibition at 0.1 µM (human CA-II [1]): 100%
- Kd (human CA-II [2]): 0.644 nM
- inhibition at 0.2 µM (human CA-IV; CA-IV Min dose 200 nM): 63.6%
- IC50 (human CA-IV): 208 nM

Structure (SMILES): CN(CC1CC1)C(=O)c1nc(Cc2ccccc2)n(-c2ccc(S(N)(=O)=O)cc2)n1 [Example R-20, 1-[4-(aminosulfonyl)phenyl]-5-benzyl-N-(cyclopropylmethyl)-N-methyl-1H-124-triazole-3-carboxamide]
- inhibition at 0.1 µM (human CA-II [1]): 100%
- Kd (human CA-II [2]): 0.805 nM
- inhibition at 0.2 µM (human CA-IV; CA-IV Min dose 200 nM): 65.2%
- IC50 (human CA-IV): 355 nM

Structure (SMILES): NS(=O)(=O)c1ccc(-n2nc(C(=O)NCc3n[nH]c4c3CCC4)nc2Cc2ccccc2)cc1 [Example R-11, 1-[4-(aminosulfonyl)phenyl]-5-benzyl-N-(1456-tetrahydrocyclopenta[c]pyrazol-3-ylmethyl)-1H-124-triazole-3-carboxamide]
- inhibition at 0.1 µM (human CA-II [1]): 99%
- Kd (human CA-II [2]): 0.091 nM
- inhibition at 0.2 µM (human CA-IV; CA-IV Min dose 200 nM): 64.7%
- IC50 (human CA-IV): 202 nM

Structure (SMILES): CCCCN(C)C(=O)c1nc(Cc2ccccc2)n(-c2ccc(S(N)(=O)=O)cc2)n1 [Example R-3, 1-[4-(aminosulfonyl)phenyl]-5-benzyl-N-butyl-N-methyl-1H-124-triazole-3-carboxamide]
- inhibition at 0.1 µM (human CA-II [1]): 101%
- Kd (human CA-II [2]): 0.451 nM
- inhibition at 0.2 µM (human CA-IV; CA-IV Min dose 200 nM): 66.4%
- IC50 (human CA-IV): 88 nM

Structure (SMILES): COc1cccc(CNC(=O)c2nc(Cc3ccccc3)n(-c3ccc(S(N)(=O)=O)cc3)n2)c1 [Example R-22, 1-[4-(aminosulfonyl)phenyl]-5-benzyl-N-(3-methoxybenzyl)-1H-124-triazole-3-carboxamide]
- inhibition at 0.1 µM (human CA-II [1]): 100%
- Kd (human CA-II [2]): 0.091 nM
- inhibition at 0.2 µM (human CA-IV; CA-IV Min dose 200 nM): 53.6%
- IC50 (human CA-IV): 361 nM

Structure (SMILES): Cc1ccc(C)c(Cn2cc(C(F)(F)F)nc2-c2ccc(S(N)(=O)=O)cc2)c1 [JJJ-1, 4-[1-(25-dimethylbenzyl)-4-(trifluoromethyl)-1H-imidazol-2-yl]benzenesulfonamide]
- inhibition at 0.0025 µM (human CA-II [1]): 46%
- Kd (human CA-II [2]): 0.608 nM
- inhibition at 0.2 µM (human CA-IV; Min dose 200 nM): 56%
- IC50 (human CA-IV): 130 nM

Structure (SMILES): Cc1ccccc1Cn1cc(C(F)(F)F)nc1-c1ccc(S(N)(=O)=O)cc1 [JJJ-3, 4-[1-(2-methylbenzyl)-4-(trifluoromethyl)-1H-imidazol-2-yl]benzenesulfonamide]
- inhibition at 0.0025 µM (human CA-II [1]): 47%
- Kd (human CA-II [2]): 0.369 nM
- inhibition at 0.2 µM (human CA-IV; Min dose 200 nM): 36%
- IC50 (human CA-IV): 346 nM

Structure (SMILES): NS(=O)(=O)c1ccc(-n2nc(CNC3CCCCCC3)nc2Cc2ccccc2)c(F)c1 [Example T-57, 4-(5-benzyl-3-[(cycloheptylamino)methyl]-1H-124-triazol-1-yl}-3-fluorobenzenesulfonamide]
- inhibition at 0.0025 µM (human CA-II [2]): 68%

Structure (SMILES): NS(=O)(=O)c1ccc(-n2nc(CN[C@H]3CCCC[C@H]3O)nc2Cc2ccccc2)c(F)c1 [Example T-53, 4-[5-benzyl-3-({[(1S2R)-2-hydroxycyclohexyl]amino}methyl)-1H-124-triazol-1-yl]-3-fluorobenzenesulfonamide]
- inhibition at 0.0025 µM (human CA-II [2]): 75%

Structure (SMILES): CCC(COC)NCc1nc(Cc2ccccc2)n(-c2ccc(S(N)(=O)=O)cc2F)n1 (centres unmarked) [Example T-70, 4-[5-benzyl-3-({[1-(methoxymethyl)propyl]amino}methyl)-1H-124-triazol-1-yl]-3-fluorobenzenesulfonamide]
- inhibition at 0.0025 µM (human CA-II [2]): 89%

Structure (SMILES): CC1(C)COCN1C(=O)c1nc(Cc2ccccc2)n(-c2ccc(S(N)(=O)=O)cc2)n1 [Example R-6, 4-(5-benzyl-3-[(44-dimethyl-13-oxazolidin-3-yl)carbonyl]-1H-124-triazol-1-yl)benzenesulfonamide]
- inhibition at 0.01 µM (human CA-II [1]; CA II Min dose 10 nM): 97%
- Kd (human CA-II [2]): 0.325 nM
- inhibition at 0.2 µM (human CA-IV; CA-IV Min dose 200 nM): 58.2%
- IC50 (human CA-IV): 180 nM

Structure (SMILES): Cc1cccc(CCNCc2nc(Cc3ccccc3)n(-c3ccc(S(N)(=O)=O)cc3F)n2)c1 [Example T-66, 4-[5-benzyl-3-({[2-(3-methylphenyl)ethyl]amino}methyl)-1H-124-triazol-1-yl]-3-fluorobenzenesulfonamide]
- inhibition at 0.0025 µM (human CA-II [2]): 52%

Structure (SMILES): Cc1cc(CNCc2nc(Cc3ccccc3)n(-c3ccc(S(N)(=O)=O)cc3F)n2)ccc1F [Example T-49, 4-(5-benzyl-3-{[(4-fluoro-3-methylbenzyl)amino]methyl}-1H-124-triazol-1-yl)-3-fluorobenzenesulfonamide]
- inhibition at 0.0025 µM (human CA-II [2]): 49%

Structure (SMILES): COc1ccc(CCNCc2nc(Cc3ccccc3)n(-c3ccc(S(N)(=O)=O)cc3F)n2)cc1 [Example T-62, 4-[5-benzyl-3-({[2-(4-methoxyphenyl)ethyl]amino}methyl)-1H-124-triazol-1-yl]-3-fluorobenzenesulfonamide]
- inhibition at 0.0025 µM (human CA-II [2]): 51%

Structure (SMILES): NS(=O)(=O)c1ccc(-n2nc(CN3CCC[C@@H](O)C3)nc2Cc2ccccc2)c(F)c1 [Example T-39, 4-(5-benzyl-3-{[(3R)-3-hydroxypiperidin-1-yl]methyl}-1H-124-triazol-1-yl)-3-fluorobenzenesulfonamide]
- inhibition at 0.0025 µM (human CA-II [2]): 65%

Structure (SMILES): C[C@@H](NCc1nc(Cc2ccccc2)n(-c2ccc(S(N)(=O)=O)cc2F)n1)c1ccccc1 [Example T-65]
- inhibition at 0.0025 µM (human CA-II [2]): 58%

Structure (SMILES): CCCN(C)Cc1nc(Cc2ccccc2)n(-c2ccc(S(N)(=O)=O)cc2F)n1 [Example T-42, 4-(5-benzyl-3-{[methyl(propyl)amino]methyl}-1H-124-triazol-1-yl)-3-fluorobenzenesulfonamide]
- inhibition at 0.0025 µM (human CA-II [2]): 42%

Structure (SMILES): Cc1cc(Cn2cc(C(F)(F)F)nc2-c2ccc(S(N)(=O)=O)cc2)ccc1F [JJJ-2, 4-[1-(4-fluoro-3-methylbenzyl)-4-(trifluoromethyl)-1H-imidazol-2-yl]benzenesulfonamide]
- inhibition at 0.0025 µM (human CA-II [1]): 37%
- Kd (human CA-II [2]): 0.552 nM
- inhibition at 0.2 µM (human CA-IV; Min dose 200 nM): 45%
- IC50 (human CA-IV): 309 nM

Structure (SMILES): CN(C)[C@H]1CCN(C(=O)c2nc(Cc3ccccc3)n(-c3ccc(S(N)(=O)=O)cc3)n2)C1 [Example R-23, 4-(5-benzyl-3-{[(3S)-3-(dimethylamino)pyrrolidin-1-yl]carbonyl}-1H-124-triazol-1-yl)benzenesulfonamide]
- inhibition at 0.1 µM (human CA-II [1]): 99%
- Kd (human CA-II [2]): 0.294 nM
- inhibition at 0.2 µM (human CA-IV; CA-IV Min dose 200 nM): 40.3%
- IC50 (human CA-IV): 376 nM

Structure (SMILES): NS(=O)(=O)c1ccc(-n2nc(CNCCc3ccccc3)nc2Cc2ccccc2)c(F)c1 [Example T-61, 4-(5-benzyl-3-{[(2-phenylethyl)amino]methyl}-1H-124-triazol-1-yl)-3-fluorobenzenesulfonamide]
- inhibition at 0.0025 µM (human CA-II [2]): 40%

Structure (SMILES): NS(=O)(=O)c1ccc(-n2nc(CNC3CCCCC3)nc2Cc2ccccc2)c(F)c1 [Example T-69, 4-{5-benzyl-3-[(cyclohexylamino)methyl]-1H-124-triazol-1-yl}-3-fluorobenzenesulfonamide]
- inhibition at 0.0025 µM (human CA-II [2]): 68%

Structure (SMILES): C[C@H](CNCc1nc(Cc2ccccc2)n(-c2ccc(S(N)(=O)=O)cc2F)n1)c1ccccc1 [Example T-52, 4-[5-benzyl-3-({[(2S)-2-phenylpropyl]amino}methyl)-1H-124-triazol-1-yl]-3-fluorobenzenesulfonamide]
- inhibition at 0.0025 µM (human CA-II [2]): 39%

Structure (SMILES): CC(Cn1cccn1)NCc1nc(Cc2ccccc2)n(-c2ccc(S(N)(=O)=O)cc2F)n1 (centres unmarked) [Example T-72, 4-[5-benzyl-3-({[1-methyl-2-(1H-pyrazol-1-yl)ethyl]amino}methyl)-1H-124-triazol-1-yl]-3-fluorobenzenesulfonamide]
- inhibition at 0.0025 µM (human CA-II [2]): 70%

Structure (SMILES): NS(=O)(=O)c1ccc(-n2nc(CN[C@@H]3C[C@H]4CC[C@@H]3C4)nc2Cc2ccccc2)c(F)c1 [Example T-67]
- inhibition at 0.0025 µM (human CA-II [2]): 47%

Structure (SMILES): NS(=O)(=O)c1ccc(-n2nc(CNCCc3cccc(F)c3)nc2Cc2ccccc2)c(F)c1 [Example T-48, 4-[5-benzyl-3-({[2-(3-fluorophenyl)ethyl]amino}methyl)-1H-124-triazol-1-yl]-3-fluorobenzenesulfonamide]
- inhibition at 0.0025 µM (human CA-II [2]): 50%

Structure (SMILES): NS(=O)(=O)c1ccc(-n2nc(CNC[C@@H](O)c3ccccc3)nc2Cc2ccccc2)c(F)c1 [Example T-46, 4-[5-benzyl-3-({[(2S)-2-hydroxy-2-phenylethyl]amino}methyl)-1H-124-triazol-1-yl]-3-fluorobenzenesulfonamide]
- inhibition at 0.0025 µM (human CA-II [2]): 57%

Structure (SMILES): C[C@H](NCc1nc(Cc2ccccc2)n(-c2ccc(S(N)(=O)=O)cc2F)n1)[C@H](O)c1ccccc1 [Example T-50, 4-[5-benzyl-3-({[(1S2R)-2-hydroxy-1-methyl-2-phenylethyl]amino}methyl)-1H-124-triazol-1-yl]-3-fluorobenzenesulfonamide]
- inhibition at 0.0025 µM (human CA-II [2]): 63%

Structure (SMILES): CCC(NCc1nc(Cc2ccccc2)n(-c2ccc(S(N)(=O)=O)cc2F)n1)c1ccccc1 (centres unmarked) [Example T-75, 4-(5-benzyl-3-{[(1-phenylpropyl)amino]methyl}-1H-124-triazol-1-yl)-3-fluorobenzenesulfonamide]
- inhibition at 0.0025 µM (human CA-II [2]): 51%

Structure (SMILES): CCOc1ccccc1CNCc1nc(Cc2ccccc2)n(-c2ccc(S(N)(=O)=O)cc2F)n1 [Example T-63, 4-(5-benzyl-3-{[(2-ethoxybenzyl)amino]methyl}-1H-124-triazol-1-yl)-3-fluorobenzenesulfonamide]
- inhibition at 0.0025 µM (human CA-II [2]): 41%
